From article PMC11435058, “Synthesis of New Thiazole-Privileged Chalcones as Tubulin Polymerization Inhibitors with Potential Anticancer Activities” (Pharmaceuticals, 2024)

Experiments:
[1] = test system: SNB-19; assay: cells; conditions: Homo sapiens
[2] = test system: RPMI-8226; assay: NCI-60 anticancer screen (SRB; single dose and five doses); conditions: Homo sapiens
[3] = test system: SR; assay: as above; conditions: Homo sapiens
[4] = test system: EKVX; assay: as above; conditions: Homo sapiens
[5] = test system: HOP-62; assay: as above; conditions: Homo sapiens
[6] = test system: NCI-H23; assay: as above; conditions: Homo sapiens
[7] = test system: HCC-2998; assay: as above
[8] = test system: HCT-116; assay: as above; conditions: Homo sapiens
[9] = test system: HT29; assay: as above; conditions: Homo sapiens
[10] = test system: KM12; assay: as above; conditions: Homo sapiens
[11] = test system: SF-295; assay: as above; conditions: Homo sapiens
[12] = test system: SF-539; assay: as above; conditions: Homo sapiens
[13] = test system: LOX IMVI; assay: as above; conditions: Homo sapiens
[14] = test system: MDA-MB-435; assay: as above; conditions: Homo sapiens
[15] = test system: SK-MEL-5; assay: as above; conditions: Homo sapiens
[16] = test system: IGROV1; assay: as above; conditions: Homo sapiens
[17] = test system: OVCAR-4; assay: as above; conditions: Homo sapiens
[18] = test system: OVCAR-5; assay: as above; conditions: Homo sapiens
[19] = test system: OVCAR-8; assay: as above; conditions: Homo sapiens
[20] = test system: NCI/ADR-RES; assay: as above; conditions: Homo sapiens
[21] = test system: SK-OV-3; assay: as above; conditions: Homo sapiens
[22] = test system: CAKI-1; assay: as above; conditions: Homo sapiens
[23] = test system: TK-10; assay: as above; conditions: Homo sapiens
[24] = test system: UO-31; assay: as above; conditions: Homo sapiens
[25] = test system: DU-145; assay: as above; conditions: Homo sapiens
[26] = test system: MCF7; assay: as above; conditions: Homo sapiens
[27] = test system: MDA-MB-231/ATCC; assay: as above; conditions: Homo sapiens
[28] = test system: HS 578T; assay: as above; conditions: Homo sapiens
[29] = test system: CCRF-CEM; assay: NCI-60 anticancer screen (SRB; single dose 10 μM and five doses); conditions: Homo sapiens
[30] = 48 h, read-out: Growth Percentage

**Q.** Which results are given for `Cc1[nH]c(=S)sc1C(=O)/C=C/c1ccc(Br)cc1` [2g, (E)-3-(4-Bromophenyl)-1-(4-Methyl-2-Thioxo-2,3-Dihydrothiazol-5-yl)Prop-2-En-1-One]?
**A.** GI50 ([1]; SNB-19): 3.47 µM; activity at 10 µM ([1]; SNB-19, 48 h, read-out: Growth Percentage): 32.7%; CC50 ([1]; SNB-19, read-out: LC50): 37.7 µM; IC (TGI) ([1]; SNB-19, read-out: TGI): 13.4 µM; GI50 ([2]; RPMI-8226): 2.29 µM; activity at 10 µM ([2]; RPMI-8226, 48 h, read-out: Growth Percentage): 1.4%; CC50 ([2]; RPMI-8226, read-out: LC50): > 100 µM; IC (TGI) ([2]; RPMI-8226, read-out: TGI): > 100 µM; GI50 [3]: 2.83 µM; activity at 10 µM [3, 30]: 8.46%; CC50 ([3]; read-out: LC50): > 100 µM; IC (TGI) ([3]; read-out: TGI): 23.2 µM; GI50 [4]: 10.6 µM; activity at 10 µM [4, 30]: 62.9%; CC50 ([4]; read-out: LC50): 51 µM; IC (TGI) ([4]; read-out: TGI): 23.3 µM; GI50 ([5]; HOP-62): 3.94 µM; activity at 10 µM ([5]; HOP-62, 48 h, read-out: Growth Percentage): 11.9%; CC50 ([5]; HOP-62, read-out: LC50): 61.2 µM; IC (TGI) ([5]; HOP-62, read-out: TGI): 14 µM; GI50 ([6]; NCI-H23): 8.23 µM; activity at 10 µM ([6]; NCI-H23, 48 h, read-out: Growth Percentage): 65%; CC50 ([6]; NCI-H23, read-out: LC50): 48 µM; IC (TGI) ([6]; NCI-H23, read-out: TGI): 21.3 µM; GI50 ([7]; Homo sapiens, HCC 2998): 2.72 µM; activity at 10 µM ([7]; Homo sapiens, HCC 2998, 48 h, read-out: Growth Percentage): 3.23%; CC50 ([7]; Homo sapiens, HCC 2998, read-out: LC50): 31.6 µM; TGI ([7]; five-dose, Colon Cancer HCC-2998): 9.62 µM; GI50 ([8]; HCT-116): 3.82 µM; activity at 10 µM ([8]; HCT-116, 48 h, read-out: Growth Percentage): 16.6%; CC50 ([8]; HCT-116, read-out: LC50): 40.9 µM; IC (TGI) ([8]; HCT-116, read-out: TGI): 13.1 µM; GI50 ([9]; HT-29): 5.09 µM; activity at 10 µM ([9]; HT-29, 48 h, read-out: Growth Percentage): 76.3%; CC50 ([9]; HT-29, read-out: LC50): 57.8 µM; IC (TGI) ([9]; HT-29, read-out: TGI): 19.3 µM; GI50 ([10]; KM12): 3.27 µM; activity at 10 µM ([10]; KM12, 48 h, read-out: Growth Percentage): 1.17%; CC50 ([10]; KM12, read-out: LC50): 35.9 µM; IC (TGI) ([10]; KM12, read-out: TGI): 11 µM; GI50 ([11]; SF-295): 12.7 µM; activity at 10 µM ([11]; SF-295, 48 h, read-out: Growth Percentage): 90.4%; CC50 ([11]; SF-295, read-out: LC50): 52.7 µM; IC (TGI) ([11]; SF-295, read-out: TGI): 25.8 µM; GI50 ([12]; SF-539): 2 µM; activity at 10 µM ([12]; SF-539, 48 h, read-out: Growth Percentage): -25.3%; IC (TGI) ([12]; SF-539, read-out: TGI): 4.67 µM; GI50 [13]: 2.8 µM; activity at 10 µM [13, 30]: -5.17%; CC50 ([13]; read-out: LC50): 33.7 µM; IC (TGI) ([13]; read-out: TGI): 10.2 µM; GI50 ([14]; MDA-MB-435): 4.12 µM; activity at 10 µM ([14]; MDA-MB-435, 48 h, read-out: Growth Percentage): 8.26%; CC50 ([14]; MDA-MB-435, read-out: LC50): 45.1 µM; IC (TGI) ([14]; MDA-MB-435, read-out: TGI): 16.7 µM; GI50 ([15]; SK-MEL-5): 5.82 µM; activity at 10 µM ([15]; SK-MEL-5, 48 h, read-out: Growth Percentage): 48.8%; CC50 ([15]; SK-MEL-5, read-out: LC50): 43 µM; IC (TGI) ([15]; SK-MEL-5, read-out: TGI): 18.4 µM; GI50 ([16]; IGROV-1): 3.29 µM; activity at 10 µM ([16]; IGROV-1, 48 h, read-out: Growth Percentage): 37.1%; CC50 ([16]; IGROV-1, read-out: LC50): 53.4 µM; IC (TGI) ([16]; IGROV-1, read-out: TGI): 11.9 µM; GI50 ([17]; OVCAR-4): 10.7 µM; activity at 10 µM ([17]; OVCAR-4, 48 h, read-out: Growth Percentage): 49.5%; CC50 ([17]; OVCAR-4, read-out: LC50): 48.5 µM; IC (TGI) ([17]; OVCAR-4, read-out: TGI): 22.8 µM; GI50 ([18]; OVCAR-5): 15.4 µM; activity at 10 µM ([18]; OVCAR-5, 48 h, read-out: Growth Percentage): 116%; CC50 ([18]; OVCAR-5, read-out: LC50): 57.3 µM; IC (TGI) ([18]; OVCAR-5, read-out: TGI): 29.7 µM; GI50 ([19]; OVCAR-8): 2.86 µM; activity at 10 µM ([19]; OVCAR-8, 48 h, read-out: Growth Percentage): -34.1%; CC50 ([19]; OVCAR-8, read-out: LC50): 37.1 µM; IC (TGI) ([19]; OVCAR-8, read-out: TGI): 8.77 µM; GI50 [20]: 6.04 µM; activity at 10 µM [20, 30]: -13.9%; CC50 ([20]; read-out: LC50): 73.4 µM; IC (TGI) ([20]; read-out: TGI): 23.4 µM; GI50 ([21]; SK-OV-3): 13.8 µM; activity at 10 µM ([21]; SK-OV-3, 48 h, read-out: Growth Percentage): 96.7%; CC50 ([21]; SK-OV-3, read-out: LC50): 74.9 µM; IC (TGI) ([21]; SK-OV-3, read-out: TGI): 32.2 µM; GI50 ([22]; CAKI-1): 10 µM; activity at 10 µM ([22]; CAKI-1, 48 h, read-out: Growth Percentage): 32.8%; CC50 ([22]; CAKI-1, read-out: LC50): 47.2 µM; IC (TGI) ([22]; CAKI-1, read-out: TGI): 21.8 µM; GI50 ([23]; TK-10): 3.04 µM; activity at 10 µM ([23]; TK-10, 48 h, read-out: Growth Percentage): 37.8%; CC50 ([23]; TK-10, read-out: LC50): 35.2 µM; IC (TGI) ([23]; TK-10, read-out: TGI): 11.8 µM; GI50 ([24]; UO-31): 2.46 µM; activity at 10 µM ([24]; UO-31, 48 h, read-out: Growth Percentage): 22.4%; IC (TGI) ([24]; UO-31, read-out: TGI): 13.5 µM; GI50 ([25]; DU-145): 3.52 µM; activity at 10 µM ([25]; DU-145, 48 h, read-out: Growth Percentage): 23.9%; CC50 ([25]; DU-145, read-out: LC50): 35.3 µM; IC (TGI) ([25]; DU-145, read-out: TGI): 12 µM; GI50 ([26]; MCF7): 2.57 µM; activity at 10 µM ([26]; MCF7, 48 h, read-out: Growth Percentage): 10.5%; CC50 ([26]; MCF7, read-out: LC50): 38.7 µM; IC (TGI) ([26]; MCF7, read-out: TGI): 10.6 µM; GI50 ([27]; MDA-MB-231): 10.9 µM; activity at 10 µM ([27]; MDA-MB-231, 48 h, read-out: Growth Percentage): 9.49%; CC50 ([27]; MDA-MB-231, read-out: LC50): 50.9 µM; IC (TGI) ([27]; MDA-MB-231, read-out: TGI): 23.5 µM; GI50 [28]: 10.4 µM; activity at 10 µM [28, 30]: 74.6%; CC50 ([28]; read-out: LC50): > 100 µM; IC (TGI) ([28]; read-out: TGI): 33 µM; GI50 [29]: 3.06 µM; activity at 10 µM [29, 30]: -11%; IC (TGI) ([29]; read-out: TGI): 61.5 µM
